≈ marks a conversion by molar mass, not a printed value.
Tests used:
Experiment in all cases: ≥ marks a high value that may be exact or a test limit, other limits are often not marked, values filed in µg/mL are converted to µM
[1] = system: Salmonella enterica subsp. enterica serovar Pullorum ATCC 7913
Escherichia coli UB1005 = system: Escherichia coli UB1005
[2] = system: Candida parapsilosis CGMCC 2.3989
[3] = system: Salmonella enterica subsp. enterica serovar Typhimurium ATCC 14028
[4] = system: Staphylococcus aureus ATCC 25923
Escherichia coli K99 = system: Escherichia coli K99
[5] = system: Staphylococcus aureus ATCC 43300
Escherichia coli K88 = system: Escherichia coli K88
[6] = system: Candida tropicalis CGMCC 2.1975
[7] = system: Staphylococcus epidermidis ATCC 12228
[8] = system: Salmonella enterica subsp. enterica serovar Typhimurium C77-31
[9] = system: Pseudomonas aeruginosa ATCC 27853
Escherichia coli 078 = system: Escherichia coli 078
Shigella dysenteriae = system: Shigella dysenteriae
[10] = system: Pseudomonas aeruginosa CMCCB 1010
Klebsiella pneumoniae = system: Klebsiella pneumoniae
[11] = system: Enterococcus faecalis ATCC 29212
[12] = system: Escherichia coli ATCC 25922
Pseudomonas aeruginosa = system: Pseudomonas aeruginosa
[13] = system: Bordetella bronchiseptica CUN 11844-99
[14] = system: Franconibacter helveticus DSM 18390
[15] = system: Bacillus subtilis DSM 347
[16] = system: Escherichia coli DSM 1116
[17] = system: Staphylococcus xylosus DSM 20287
Escherichia coli ML-35 = system: Escherichia coli ML-35
[18] = system: Serratia marcescens ATCC 8100

## CC[C@H](C)[C@H](NC(=O)[C@H](CCCN=C(N)N)NC(=O)[C@H](C)NC(=O)[C@H](C)N)C(=O)N[C@H](C(=O)N[C@@H](CC(C)C)C(=O)N[C@@H](CCCN=C(N)N)C(=O)N[C@@H](C)C(=O)N[C@@H](CCCN=C(N)N)C(=O)N[C@@H](Cc1ccccc1)C(=O)N[C@@H](CCCN=C(N)N)C(N)=O)[C@@H](C)CC [AARIILRARFR]
[1]
  MIC: 4 µM (≈ 5.37 µg/mL)
Escherichia coli UB1005
  MIC: 2 µM (≈ 2.68 µg/mL)
[2]
  MIC: 16 µM (≈ 21.5 µg/mL)
[3]
  MIC: 4 µM (≈ 5.37 µg/mL)
[4]
  MIC: 4 µM (≈ 5.37 µg/mL)
Escherichia coli K99
  MIC: 2 µM (≈ 2.68 µg/mL)
[5]
  MIC: 2 µM (≈ 2.68 µg/mL)
Escherichia coli K88
  MIC: 2 µM (≈ 2.68 µg/mL)
[6]
  MIC: 4 µM (≈ 5.37 µg/mL)
[7]
  MIC: 2 µM (≈ 2.68 µg/mL)
[8]
  MIC: 4 µM (≈ 5.37 µg/mL)
[9]
  MIC: 16 µM (≈ 21.5 µg/mL)
Escherichia coli 078
  MIC: 4 µM (≈ 5.37 µg/mL)

## CC[C@H](C)[C@H](NC(=O)[C@H](CCCN=C(N)N)NC(=O)[C@H](CC(C)C)NC(=O)[C@@H](NC(=O)[C@@H](NC(=O)[C@H](CCCN=C(N)N)NC(=O)[C@H](C)NC(=O)[C@H](C)N)[C@@H](C)CC)[C@@H](C)CC)C(=O)N[C@@H](CCCN=C(N)N)C(=O)N[C@@H](Cc1ccccc1)C(=O)N[C@@H](CCCN=C(N)N)C(N)=O [AARIILRIRFR]
[1]
  MIC: 2 µM (≈ 2.77 µg/mL)
Escherichia coli UB1005
  MIC: 4 µM (≈ 5.54 µg/mL)
[2]
  MIC: 4 µM (≈ 5.54 µg/mL)
[3]
  MIC: 2 µM (≈ 2.77 µg/mL)
[4]
  MIC: 2 µM (≈ 2.77 µg/mL)
Escherichia coli K99
  MIC: 4 µM (≈ 5.54 µg/mL)
[5]
  MIC: 2 µM (≈ 2.77 µg/mL)
Escherichia coli K88
  MIC: 2 µM (≈ 2.77 µg/mL)
[6]
  MIC: 4 µM (≈ 5.54 µg/mL)
[7]
  MIC: 2 µM (≈ 2.77 µg/mL)
[8]
  MIC: 4 µM (≈ 5.54 µg/mL)
[9]
  MIC: 16 µM (≈ 22.1 µg/mL)
Escherichia coli 078
  MIC: 2 µM (≈ 2.77 µg/mL)

## CC[C@H](C)[C@H](NC(=O)[C@H](CC(C)C)NC(=O)[C@@H](NC(=O)[C@@H](NC(=O)[C@H](C)NC(=O)[C@@H](NC(=O)[C@H](CC(N)=O)NC(=O)[C@H](CCCCN)NC(=O)[C@H](C)NC(=O)[C@@H](NC(=O)[C@H](CC(N)=O)NC(=O)[C@H](CCCCN)NC(=O)[C@H](C)NC(=O)[C@@H](NC(=O)[C@H](CC(=O)O)NC(=O)[C@H](CCSC)NC(=O)[C@H](Cc1ccccc1)NC(=O)CN)[C@@H](C)O)C(C)C)C(C)C)C(C)C)[C@@H](C)O)C(=O)N[C@@H](CC(=O)O)C(=O)N[C@@H](CCCCN)C(=O)N[C@@H](CC(C)C)C(=O)N[C@@H](CCCN=C(N)N)C(=O)N[C@H]1CSSC[C@@H](C(=O)O)NC(=O)CNC(=O)CNC(=O)[C@H]([C@@H](C)O)NC(=O)[C@H](C(C)C)NC(=O)[C@H](CCCCN)NC1=O [GFMDTAKNVAKNVAVTLIDKLRCKVTGGC]
[4]
  MIC: 20 µM (≈ 61 µg/mL)
Shigella dysenteriae
  MIC: ≥ 50 µM
[10]
  MIC: 20 µM (≈ 61 µg/mL)
Klebsiella pneumoniae
  MIC: 50 µM (≈ 153 µg/mL)
[11]
  MIC: 20 µM (≈ 61 µg/mL)
[12]
  MIC: 13 µM (≈ 39.7 µg/mL)
[9]
  MIC: 33 µM (≈ 101 µg/mL)
Pseudomonas aeruginosa
  MIC: 50 µM (≈ 153 µg/mL)

## NCCCC[C@H](NC(=O)[C@H](Cc1ccc(O)cc1)NC(=O)[C@H](CCCN=C(N)N)NC(=O)[C@H](CCCN=C(N)N)NC(=O)CN)C(=O)N[C@@H](CCCCN)C(=O)N[C@@H](Cc1ccccc1)C(=O)N[C@@H](CCCCN)C(=O)N[C@@H](Cc1c[nH]c2ccccc12)C(=O)N[C@@H](CCCN=C(N)N)C(=O)N[C@@H](Cc1ccccc1)C(=O)N[C@@H](CCCN=C(N)N)C(=O)NCC(=O)N[C@@H](CCCN=C(N)N)C(=O)N[C@@H](Cc1ccccc1)C(=O)N[C@@H](Cc1c[nH]c2ccccc12)C(=O)N[C@@H](Cc1ccccc1)C(=O)N[C@@H](Cc1c[nH]c2ccccc12)C(=O)NCC(N)=O [GRRYKKFKWRFRGRFWFWG]
[4]
  MIC: 12 µM (≈ 32 µg/mL)
[13]
  MIC: 6 µM (≈ 16 µg/mL)
[12]
  MIC: 24 µM (≈ 64 µg/mL)

## CC[C@H](C)[C@H](N)C(=O)N[C@@H](C)C(=O)NCC(=O)N[C@@H](CCCCN)C(=O)N[C@H](C(=O)N[C@@H](C)C(=O)N[C@@H](CCCCN)C(=O)N[C@H](C(=O)N[C@@H](C)C(=O)NCC(=O)N[C@@H](CCCCN)C(=O)N[C@H](C(=O)N[C@@H](C)C(=O)N[C@@H](CCCCN)C(=O)N[C@H](C(=O)N[C@@H](C)C(=O)NCC(=O)N[C@@H](CCCCN)C(=O)N[C@H](C(=O)N[C@@H](C)C(=O)N[C@@H](CCCCN)C(N)=O)[C@@H](C)CC)[C@@H](C)CC)[C@@H](C)CC)[C@@H](C)CC)[C@@H](C)CC [IAGKIAKIAGKIAKIAGKIAK]
[14]
  MIC: 1.37 µM (≈ 2.83 µg/mL)
[15]
  MIC: 1.37 µM (≈ 2.83 µg/mL)
[16]
  MIC: 1.94 µM (≈ 4 µg/mL)
[17]
  MIC: 1.37 µM (≈ 2.83 µg/mL)

## CC[C@H](C)[C@H](N)C(=O)N[C@@H](C)C(=O)N[C@@H](CCCCN)C(=O)N[C@H](C(=O)N[C@@H](C)C(=O)NCC(=O)N[C@@H](CCCCN)C(=O)N[C@H](C(=O)N[C@@H](C)C(=O)N[C@@H](CCCCN)C(=O)N[C@H](C(=O)N[C@@H](C)C(=O)NCC(=O)N[C@@H](CCCCN)C(=O)N[C@H](C(=O)N[C@@H](C)C(=O)N[C@@H](CCCCN)C(N)=O)[C@@H](C)CC)[C@@H](C)CC)[C@@H](C)CC)[C@@H](C)CC [IAKIAGKIAKIAGKIAK]
[14]
  MIC: ≥ 53.4 µM
[15]
  MIC: 9.44 µM (≈ 16 µg/mL)
[16]
  MIC: ≥ 75.6 µM
[17]
  MIC: ≥ 75.6 µM

## CC[C@H](C)[C@H](NC(=O)[C@H](CCCCN)NC(=O)CNC(=O)[C@H](C)NC(=O)[C@@H](NC(=O)[C@H](CCCCN)NC(=O)[C@H](C)NC(=O)[C@@H](NC(=O)[C@H](CCCCN)NC(=O)CNC(=O)[C@H](C)NC(=O)[C@@H](NC(=O)[C@H](CCCCN)NC(=O)[C@H](C)NC(=O)[C@@H](NC(=O)[C@H](CCCCN)NC(=O)CNC(=O)[C@H](C)NC(=O)[C@@H](NC(=O)[C@H](CCCCN)NC(=O)[C@H](C)NC(=O)[C@@H](NC(=O)[C@@H](N)CCCCN)[C@@H](C)CC)[C@@H](C)CC)[C@@H](C)CC)[C@@H](C)CC)[C@@H](C)CC)[C@@H](C)CC)C(=O)N[C@@H](C)C(N)=O [KIAKIAGKIAKIAGKIAKIAGKIA]
[14]
  MIC: 0.842 µM (≈ 2 µg/mL)
[15]
  MIC: 0.842 µM (≈ 2 µg/mL)
[16]
  MIC: 0.842 µM (≈ 2 µg/mL)
[17]
  MIC: 0.842 µM (≈ 2 µg/mL)

## CC[C@H](C)[C@H](NC(=O)[C@H](CCCCN)NC(=O)CNC(=O)[C@H](C)NC(=O)[C@@H](NC(=O)[C@H](CCCCN)NC(=O)[C@H](C)NC(=O)[C@@H](NC(=O)[C@H](CCCCN)NC(=O)CNC(=O)[C@H](C)NC(=O)[C@@H](NC(=O)[C@H](CCCCN)NC(=O)[C@H](C)NC(=O)[C@@H](NC(=O)[C@@H](N)CCCCN)[C@@H](C)CC)[C@@H](C)CC)[C@@H](C)CC)[C@@H](C)CC)C(=O)N[C@@H](C)C(N)=O [KIAKIAGKIAKIAGKIA]
[14]
  MIC: 9.44 µM (≈ 16 µg/mL)
[15]
  MIC: 6.68 µM (≈ 11.3 µg/mL)
[16]
  MIC: 6.68 µM (≈ 11.3 µg/mL)
[17]
  MIC: ≥ 37.8 µM

## CC[C@H](C)[C@H](NC(=O)[C@@H]1CCCN1C(=O)[C@H](CCCN=C(N)N)NC(=O)[C@@H]1CCCN1C(=O)CNC(=O)[C@@H]1CCCN1C(=O)[C@H](CCCN=C(N)N)NC(=O)[C@@H]1CCCN1C(=O)[C@H](Cc1ccccc1)NC(=O)[C@@H]1CCCN1C(=O)[C@H](CC(C)C)NC(=O)[C@@H]1CCCN1C(=O)[C@H](CCCN=C(N)N)NC(=O)[C@@H]1CCCN1)C(=O)O [PRPLPFPRPGPRPI]
[3]
  MIC: > 128 µM
[4]
  MIC: > 128 µM
Escherichia coli ML-35
  MIC: ≥ 128 µM
[12]
  MIC: > 128 µM
[18]
  MIC: ≥ 128 µM
